In brackets after ≈: the same amount, converted by molar mass.
Columns and labels:
Format in all cases: functional
[1] = system: Bifidobacterium pseudolongum; assay: Antimicrobial activity against Bifidobacterium pseudolongum by Wadsworth agar dilution method
Clostridium sporogenes = assay: Antimicrobial activity against Clostridium sporogenes by Wadsworth agar dilution method
Blautia producta = assay: Antimicrobial activity against Ruminococcus productus by Wadsworth agar dilution method
[2] = system: Catenibacterium mitsuokai; assay: Antimicrobial activity against Catenibacterium mitsuokai by Wadsworth agar dilution method
Clostridium spiroforme = assay: Antimicrobial activity against Clostridium spiroforme by Wadsworth agar dilution method; conditions: Thomasclavelia spiroformis
[3] = system: Porphyromonas asaccharolytica; assay: Antimicrobial activity against Porphyromonas asaccharolyticus by Wadsworth agar dilution method
Bilophila wadsworthia = assay: Antimicrobial activity against Bilophila wadsworthia by Wadsworth agar dilution method in presence of 1% pyruvic acid
Fusobacterium mortiferum = assay: Antimicrobial activity against Fusobacterium mortiferum by Wadsworth agar dilution method in presence of beta-lactamase inhibitor Sulbactam
Clostridium beijerinckii = assay: Antimicrobial activity against Clostridium beijerinckii by Wadsworth agar dilution method
Eubacterium saburreum = assay: Antimicrobial activity against Eubacterium saburreum by Wadsworth agar dilution method; conditions: Lachnoanaerobaculum saburreum
Actinomyces viscosus = assay: Antimicrobial activity against Actinomyces viscosus by Wadsworth agar dilution method
Eubacterium callanderi = assay: Antimicrobial activity against Eubacterium callanderi by Wadsworth agar dilution method
Lactobacillus jensenii = assay: Antimicrobial activity against Lactobacillus jensenii by Wadsworth agar dilution method
Peptoniphilus harei = assay: Antimicrobial activity against Peptoniphilus harei by Wadsworth agar dilution method
Clostridium perfringens = assay: Antimicrobial activity against Clostridium perfringens by Wadsworth agar dilution method
Porphyromonas somerae = assay: Antimicrobial activity against Porphyromonas somerae by Wadsworth agar dilution method
Eggerthella lenta = assay: Antimicrobial activity against Eggerthella lenta by Wadsworth agar dilution method
[4] = system: Propionibacterium propionicum; assay: Antimicrobial activity against Propionibacterium propionicum by Wadsworth agar dilution method; conditions: Arachnia propionica
Clostridium sp. = assay: Antimicrobial activity against Clostridium sp. by Wadsworth agar dilution method
[5] = system: Clostridium aminobutyricum; assay: Antimicrobial activity against Clostridium aminobutyricum by Wadsworth agar dilution method
Clostridium cocleatum = assay: Antimicrobial activity against Clostridium cocleatum by Wadsworth agar dilution method; conditions: Thomasclavelia cocleata
[6] = system: Peptostreptococcus anaerobius; assay: Antimicrobial activity against Peptostreptococcus anaerobius by Wadsworth agar dilution method
[7] = system: Lactiplantibacillus plantarum; assay: Antimicrobial activity against Lactobacillus plantarum by Wadsworth agar dilution method
[8] = system: Fusobacterium necrophorum; assay: Antimicrobial activity against Fusobacterium necrophorum by Wadsworth agar dilution method
[Clostridium] innocuum = Antimicrobial activity against Clostridium innocuum by Wadsworth agar dilution method
[9] = system: Bacteroides thetaiotaomicron; assay: Antimicrobial activity against Bacteroides thetaiotaomicron by Wadsworth agar dilution method
Ruminococcus torques = assay: Antimicrobial activity against Ruminococcus torques by Wadsworth agar dilution method; conditions: Mediterraneibacter torques
[10] = Antimicrobial activity against Bifidobacterium pseudocatenulatum by Wadsworth agar dilution method
Bifidobacterium bifidum = assay: Antimicrobial activity against Bifidobacterium bifidum by Wadsworth agar dilution method
[11] = system: Clostridium acetobutylicum; assay: Antimicrobial activity against Clostridium acetobutylicum by Wadsworth agar dilution method
Clostridium glycolicum = assay: Antimicrobial activity against Clostridium glycolicum by Wadsworth agar dilution method; conditions: Terrisporobacter glycolicus
[12] = system: Prevotella melaninogenica; assay: Antimicrobial activity against Prevotella melaninogenica by Wadsworth agar dilution method
Prevotella disiens = assay: Antimicrobial activity against Prevotella disiens by Wadsworth agar dilution method
Atopobium minutum = assay: Antimicrobial activity against Atopobium minutum by Wadsworth agar dilution method
Desulfovibrio sp. = assay: Antimicrobial activity against Desulfovibrio sp. by Wadsworth agar dilution method
Porphyromonas uenonis = assay: Antimicrobial activity against Porphyromonas uenonis by Wadsworth agar dilution method
[13] = system: Limosilactobacillus fermentum; assay: Antimicrobial activity against Lactobacillus fermentum by Wadsworth agar dilution method
Bacteroides caccae = assay: Antimicrobial activity against Bacteroides caccae by Wadsworth agar dilution method
Anaerococcus prevotii = assay: Antimicrobial activity against Anaerococcus prevotii by Wadsworth agar dilution method
Eubacterium biforme = assay: Antimicrobial activity against Eubacterium biforme by Wadsworth agar dilution method; conditions: Holdemanella biformis
Clostridium septicum = assay: Antimicrobial activity against Clostridium septicum by Wadsworth agar dilution method
Clostridioides difficile = assay: Antimicrobial activity against Clostridium difficile by Wadsworth agar dilution method
Propionibacterium avidum = assay: Antimicrobial activity against Propionibacterium avidum by Wadsworth agar dilution method; conditions: Cutibacterium avidum
[14] = system: Lactobacillus acidophilus; assay: Antimicrobial activity against Lactobacillus acidophilus by Wadsworth agar dilution method
Schaalia odontolytica = assay: Antimicrobial activity against Actinomyces odontolyticus by Wadsworth agar dilution method
Eubacterium rectale = assay: Antimicrobial activity against Eubacterium rectale by Wadsworth agar dilution method; conditions: Agathobacter rectalis
Bacteroides ovatus = assay: Antimicrobial activity against Bacteroides ovatus by Wadsworth agar dilution method

## CO[C@H]1/C=C/O[C@@]2(C)Oc3c(C)c(O)c4c(O)c(c5c(nc6cc(C)ccn65)c4c3C2=O)NC(=O)/C(C)=C\C=C\[C@H](C)[C@H](O)[C@@H](C)[C@@H](O)[C@@H](C)[C@H](OC(C)=O)[C@@H]1C [RIFAXIMIN]
[1]
  MIC50: 0.5 µg/mL (≈ 0.636 µM)
  MIC90: > 1020 µg/mL
Clostridium sporogenes
  MIC: 0.25 µg/mL (≈ 0.318 µM)
  MIC50: 0.25 µg/mL (≈ 0.318 µM)
  MIC90: > 1020 µg/mL
Blautia producta
  MIC: 0.25 µg/mL (≈ 0.318 µM)
  MIC50: 0.25 µg/mL (≈ 0.318 µM)
  MIC90: 4 µg/mL (≈ 5.09 µM)
[2]
  MIC50: 0.5 µg/mL (≈ 0.636 µM)
  MIC90: > 1020 µg/mL
Clostridium spiroforme
  MIC: 0.25 µg/mL (≈ 0.318 µM)
  MIC50: 0.25 µg/mL (≈ 0.318 µM)
  MIC90: > 1020 µg/mL
[3]
  MIC: 0.25 µg/mL (≈ 0.318 µM)
  MIC50: 0.25 µg/mL (≈ 0.318 µM)
  MIC90: 0.5 µg/mL (≈ 0.636 µM)
Bilophila wadsworthia
  MIC: 0.25 µg/mL
  MIC50: 0.25 µg/mL
  MIC90: 0.5 µg/mL
Fusobacterium mortiferum
  MIC50: 16 µg/mL
  MIC90: > 1020 µg/mL
Clostridium beijerinckii
  MIC: 0.25 µg/mL (≈ 0.318 µM)
  MIC50: 0.25 µg/mL (≈ 0.318 µM)
  MIC90: > 1020 µg/mL
Eubacterium saburreum
  MIC50: 0.5 µg/mL (≈ 0.636 µM)
  MIC90: > 1020 µg/mL
Actinomyces viscosus
  MIC50: 0.5 µg/mL (≈ 0.636 µM)
  MIC90: > 1020 µg/mL
Eubacterium callanderi
  MIC50: 0.5 µg/mL (≈ 0.636 µM)
  MIC90: > 1020 µg/mL
Lactobacillus jensenii
  MIC50: 0.5 µg/mL (≈ 0.636 µM)
  MIC90: > 1020 µg/mL
Peptoniphilus harei
  MIC: 0.25 µg/mL (≈ 0.318 µM)
  MIC50: 0.25 µg/mL (≈ 0.318 µM)
  MIC90: 4 µg/mL (≈ 5.09 µM)
Clostridium perfringens
  MIC50: 0.25 µg/mL (≈ 0.318 µM)
  MIC90: 0.25 µg/mL (≈ 0.318 µM)
Porphyromonas somerae
  MIC: 0.25 µg/mL (≈ 0.318 µM)
  MIC50: 0.25 µg/mL (≈ 0.318 µM)
  MIC90: 0.5 µg/mL (≈ 0.636 µM)
Eggerthella lenta
  MIC50: 0.5 µg/mL (≈ 0.636 µM)
  MIC90: > 1020 µg/mL
[4]
  MIC50: 0.5 µg/mL (≈ 0.636 µM)
  MIC90: > 1020 µg/mL
Clostridium sp.
  MIC: 0.25 µg/mL (≈ 0.318 µM)
  MIC50: 0.25 µg/mL (≈ 0.318 µM)
  MIC90: > 1020 µg/mL
[5]
  MIC: 0.25 µg/mL (≈ 0.318 µM)
  MIC50: 0.25 µg/mL (≈ 0.318 µM)
  MIC90: > 1020 µg/mL
Clostridium cocleatum
  MIC: 0.25 µg/mL (≈ 0.318 µM)
  MIC50: 0.25 µg/mL (≈ 0.318 µM)
  MIC90: > 1020 µg/mL
[6]
  MIC: 0.25 µg/mL (≈ 0.318 µM)
  MIC50: 0.25 µg/mL (≈ 0.318 µM)
  MIC90: 4 µg/mL (≈ 5.09 µM)
[7]
  MIC50: 0.5 µg/mL (≈ 0.636 µM)
  MIC90: > 1020 µg/mL
[8]
  MIC50: 16 µg/mL (≈ 20.4 µM)
  MIC90: > 1020 µg/mL
[Clostridium] innocuum
  MIC50: > 1020 µg/mL
  MIC90: > 1020 µg/mL
[9]
  MIC50: 1 µg/mL (≈ 1.27 µM)
  MIC90: > 1020 µg/mL
Ruminococcus torques
  MIC: 0.25 µg/mL (≈ 0.318 µM)
  MIC50: 0.25 µg/mL (≈ 0.318 µM)
  MIC90: 4 µg/mL (≈ 5.09 µM)
[10]
  MIC50: 0.5 µg/mL (≈ 0.636 µM)
  MIC90: > 1020 µg/mL
Bifidobacterium bifidum
  MIC50: 0.5 µg/mL (≈ 0.636 µM)
  MIC90: > 1020 µg/mL
[11]
  MIC: 0.25 µg/mL (≈ 0.318 µM)
  MIC50: 0.25 µg/mL (≈ 0.318 µM)
  MIC90: > 1020 µg/mL
Clostridium glycolicum
  MIC: 0.25 µg/mL (≈ 0.318 µM)
  MIC50: 0.25 µg/mL (≈ 0.318 µM)
  MIC90: > 1020 µg/mL
[12]
  MIC: 0.25 µg/mL (≈ 0.318 µM)
  MIC50: 0.25 µg/mL (≈ 0.318 µM)
  MIC90: 0.5 µg/mL (≈ 0.636 µM)
Prevotella disiens
  MIC: 0.25 µg/mL (≈ 0.318 µM)
  MIC50: 0.25 µg/mL (≈ 0.318 µM)
  MIC90: 0.5 µg/mL (≈ 0.636 µM)
Atopobium minutum
  MIC50: 0.5 µg/mL (≈ 0.636 µM)
  MIC90: > 1020 µg/mL
Desulfovibrio sp.
  MIC50: 16 µg/mL (≈ 20.4 µM)
  MIC90: 332 µg/mL (≈ 422 µM)
Porphyromonas uenonis
  MIC: 0.25 µg/mL (≈ 0.318 µM)
  MIC50: 0.25 µg/mL (≈ 0.318 µM)
  MIC90: 0.5 µg/mL (≈ 0.636 µM)
[13]
  MIC50: 0.5 µg/mL (≈ 0.636 µM)
  MIC90: > 1020 µg/mL
Bacteroides caccae
  MIC: 0.25 µg/mL (≈ 0.318 µM)
  MIC50: 0.25 µg/mL (≈ 0.318 µM)
  MIC90: > 0.5 µg/mL
Anaerococcus prevotii
  MIC: 0.25 µg/mL (≈ 0.318 µM)
  MIC50: 0.25 µg/mL (≈ 0.318 µM)
  MIC90: 4 µg/mL (≈ 5.09 µM)
Eubacterium biforme
  MIC50: 0.5 µg/mL (≈ 0.636 µM)
  MIC90: > 1020 µg/mL
Clostridium septicum
  MIC: 0.25 µg/mL (≈ 0.318 µM)
  MIC50: 0.25 µg/mL (≈ 0.318 µM)
  MIC90: > 1020 µg/mL
Clostridioides difficile
  MIC50: 0.25 µg/mL (≈ 0.318 µM)
  MIC90: 0.25 µg/mL (≈ 0.318 µM)
Propionibacterium avidum
  MIC50: 0.5 µg/mL (≈ 0.636 µM)
  MIC90: > 1020 µg/mL
[14]
  MIC50: 0.5 µg/mL (≈ 0.636 µM)
  MIC90: > 1020 µg/mL
Schaalia odontolytica
  MIC50: 0.5 µg/mL (≈ 0.636 µM)
  MIC90: > 1020 µg/mL
Eubacterium rectale
  MIC50: 0.5 µg/mL (≈ 0.636 µM)
  MIC90: > 1020 µg/mL
Bacteroides ovatus
  MIC50: 1 µg/mL (≈ 1.27 µM)
  MIC90: 1 µg/mL (≈ 1.27 µM)

From ChEMBL document CHEMBL1275577, “Study of the in vitro activities of rifaximin and comparator agents against 536 anaerobic intestinal bacteria from the perspective of potential utility in pathology involving bowel flora” (Antimicrob Agents Chemother, 2009)
